Assays:
C4-2 cells = assay: Cell proliferation assay (CellTiter-Glo, 5-day exposure), C4-2; type: cell-based; details: C4-2, 1000 cells/well, Th-227 labelled at 375 kBq/nmol, mean of 1 to 6 experiments
Procedure, shortened: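 Seeding was 4000 cells/well for VCaP and 1000 cells/well for 22Rv1, C4-2 and LNCaP, followed by overnight culture at 37° C and 5% CO2. Cells were exposed to Thorium-227-labeled PSMA ligands for 5 days, and viability was measured by CellTiter-Glo luminescence both at treatment start and at the end.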

LNCaP cells = assay: Cell proliferation assay (CellTiter-Glo, 5-day exposure), LNCaP; type: cell-based, human; details: LNCaP, 1000 cells/well; Th-227 labelled at 375 kBq/nmol; 5-day exposure; mean of 1 to 6 experiments
Procedure, shortened: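 CTG luminescence read-out at treatment start (sister plates) and after 5-day exposure. Th-227-labeled PSMA small molecules, specific activity 375 kBq/nmol, RCP >70% (50–70% flagged), serial dilutions in triplicate. Seeding: VCaP 4000 cells/well; 22Rv1, C4-2, LNCaP 1000 cells/well.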

[1] = Biodistribution study in LNCaP tumor-bearing mice (Th227 counted in organs); type: in vivo, SCID mice; details: 1500 kBq/kg
Procedure, shortened: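 SCID mice bearing testosterone pellets and subcutaneous LNCaP flank tumors (~50 mm^2) received a single intravenous dose of the radioactive compound. At set time points, n=3 animals were sacrificed, and organs were removed, weighed and counted for Th227 on a Germanium detector.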

O=C([O-])CN1CCN(CC(=O)[O-])CCN(CC(=O)NCC2CCC(C(=O)NC(Cc3ccc4ccccc4c3)C(=O)NCCCCC(NC(=O)NC(CCC(=O)O)C(=O)O)C(=O)O)CC2)CCN(CC(=O)[O-])CC1.[227Th+4] [Example 1-B-D-227Th, [^227Th]Thorium-(3S,10S,14R)-3-[(naphthalen-2-yl)methyl]-1,4,12-trioxo-1-{(1r,4S)-4-[(2-{4,7,10-tris[(carboxy-kappaO)methyl]-1,4,7,10-tetraazacyclododecan-1-yl-kappa^4N^1,N^4,N^7,N^10}acetamido)methyl]cyclohexyl}-2,5,11,13-tetraazahexadecane-10,14,16-tricarboxylate]
Proliferation assay on cancer cell lines by TTCs Default Pivot #3 IC50 [kBq/mL] C4-2 1000cells 375kBq/nmol (mean) (C4-2 cells): 3.15 kBq/mL
Proliferation assay on cancer cell lines by TTCs Default Pivot #3 IC50 [kBq/mL] LnCap 1000cells 375kBq/nmol (mean) (LNCaP cells): 0.49 kBq/mL
Th-227 in Blood ([1]; 0.25 h): 4.97% ID Th-227/g organ
Th-227 in Liver ([1]; 0.25 h): 1.25% ID Th-227/g organ
Th-227 in Spleen ([1]; 0.25 h): 1.91% ID Th-227/g organ
Th-227 in Tumor ([1]; 0.25 h): 2.08% ID Th-227/g organ
Th-227 in bone ([1]; 0.25 h): 1.70% ID Th-227/g organ
Th-227 in brain ([1]; 0.25 h): 0.18% ID Th-227/g organ
Th-227 in kidney ([1]; 0.25 h): 10.76% ID Th-227/g organ
Th-227 in large intestine ([1]; 0.25 h): 0.75% ID Th-227/g organ
Th-227 in lung ([1]; 0.25 h): 3.67% ID Th-227/g organ
Th-227 in muscle ([1]; 0.25 h): 0.88% ID Th-227/g organ
Th-227 in prostate ([1]; 0.25 h): 6.26% ID Th-227/g organ
Th-227 in salivary glands ([1]; 0.25 h): 1.61% ID Th-227/g organ
Th-227 in small intestine ([1]; 0.25 h): 1.21% ID Th-227/g organ
Th-227 in Blood ([1]; 1 hr): 1.04% ID Th-227/g organ
Th-227 in Liver ([1]; 1 hr): 0.59% ID Th-227/g organ
Th-227 in Spleen ([1]; 1 hr): 1.09% ID Th-227/g organ
Th-227 in Tumor ([1]; 1 hr): 1.16% ID Th-227/g organ
Th-227 in bone ([1]; 1 hr): 0.99% ID Th-227/g organ
Th-227 in kidney ([1]; 1 hr): 4.11% ID Th-227/g organ
Th-227 in large intestine ([1]; 1 hr): 0.18% ID Th-227/g organ
Th-227 in lung ([1]; 1 hr): 0.98% ID Th-227/g organ
Th-227 in muscle ([1]; 1 hr): 0.24% ID Th-227/g organ
Th-227 in prostate ([1]; 1 hr): 2.87% ID Th-227/g organ
Th-227 in salivary glands ([1]; 1 hr): 0.52% ID Th-227/g organ
Th-227 in small intestine ([1]; 1 hr): 0.26% ID Th-227/g organ
Th-227 in Blood ([1]; 4 hr): 0.20% ID Th-227/g organ
Th-227 in Liver ([1]; 4 hr): 0.43% ID Th-227/g organ
Th-227 in Spleen ([1]; 4 hr): 0.34% ID Th-227/g organ
Th-227 in Tumor ([1]; 4 hr): 1.59% ID Th-227/g organ
Th-227 in bone ([1]; 4 hr): 1.68% ID Th-227/g organ
Th-227 in brain ([1]; 4 hr): 0.01% ID Th-227/g organ
Th-227 in kidney ([1]; 4 hr): 2.97% ID Th-227/g organ
Th-227 in large intestine ([1]; 4 hr): 0.17% ID Th-227/g organ
Th-227 in lung ([1]; 4 hr): 0.43% ID Th-227/g organ
Th-227 in muscle ([1]; 4 hr): 0.05% ID Th-227/g organ
Th-227 in salivary glands ([1]; 4 hr): 0.30% ID Th-227/g organ
Th-227 in small intestine ([1]; 4 hr): 0.17% ID Th-227/g organ
Th-227 in Liver ([1]; 24 h): 0.31% ID Th-227/g organ
Th-227 in Spleen ([1]; 24 h): 0.23% ID Th-227/g organ
Th-227 in Tumor ([1]; 24 h): 0.95% ID Th-227/g organ
Th-227 in bone ([1]; 24 h): 1.29% ID Th-227/g organ
Th-227 in kidney ([1]; 24 h): 0.83% ID Th-227/g organ
Th-227 in large intestine ([1]; 24 h): 0.07% ID Th-227/g organ
Th-227 in lung ([1]; 24 h): 0.16% ID Th-227/g organ
Th-227 in muscle ([1]; 24 h): 0.00% ID Th-227/g organ
Th-227 in salivary glands ([1]; 24 h): 0.09% ID Th-227/g organ
Th-227 in small intestine ([1]; 24 h): 0.08% ID Th-227/g organ
Th-227 in Liver ([1]; 96 h): 0.31% ID Th-227/g organ
Th-227 in Spleen ([1]; 96 h): 0.29% ID Th-227/g organ
Th-227 in Tumor ([1]; 96 h): 1.05% ID Th-227/g organ
Th-227 in bone ([1]; 96 h): 2.88% ID Th-227/g organ
Th-227 in kidney ([1]; 96 h): 0.37% ID Th-227/g organ
Th-227 in lung ([1]; 96 h): 0.14% ID Th-227/g organ
Th-227 in muscle ([1]; 96 h): 0.00% ID Th-227/g organ
Th-227 in salivary glands ([1]; 96 h): 0.13% ID Th-227/g organ
Th-227 in small intestine ([1]; 96 h): 0.06% ID Th-227/g organ

From patent US20230072421A1, “TARGETED RADIOPHARMACEUTICALS FOR THE DIAGNOSIS AND TREATMENT OF PROSTATE CANCER” (Bayer AS, priority 2019, published 2023)
